Laboratory results published in publication PMC3430621, “HPLC–MS/MS Analysis of a Traditional Chinese Medical Formulation of Bu-Yang-Huan-Wu-Tang and Its Pharmacokinetics after Oral Administration to Rats” (PLoS ONE, 2012).
Where two headings read alike, the source gives them in different places.

Legend:
[1] = set-up: method as in PMID 17931809; conditions: cited from earlier work
[2] = Stability of the analytes in rat plasma samples (freeze-thaw, short-term, long-term, autosampler); format: in vitro ADME; conditions: n = 3; for Stability (%) Autosampler stability: autosampler 8°C 12 h; for Stability (%) Short-term stability: room temperature 6 h; for Stability (%) Freeze-thaw stability: three freeze-thaw cycles; for Stability (%) Long-term stability: −20°C 14 days
Experimental: Stability was also assessed using the low, medium and high concentrations of analytes. Freeze-thaw stability was assessed over three freeze-thaw cycles. Short-term stability was determined by placing the samples at room temperature for 6 h. Long-term stability was evaluated by analyzing samples kept at −20°C for 14 days. Autosampler stability was determined by maintaining the samples at the autosampler temperature (8°C) for 12 h. All stabilities were calculating as the ratio of average concentration and freshly prepared samples.

[3] = Pharmacokinetics in conscious freely moving rats after oral administration of BYHWT extract (HPLC-MS/MS of plasma); format: in vivo, Sprague-Dawley rats
Text: The protocol listed below has been reviewed and approved by the Institutional Animal Care and Use Committee (IACUC; approval number 1010409) by the Institutional Animal Experimentation Committee of the National Yang-Ming University. Male pathogen-free Sprague-Dawley rats (250±50 g body weight) were obtained from the Laboratory Animal Center of National Yang Ming University. The animals had free access to food (Laboratory rodent diet 5P14, PMI Feeds, Richmond, IN, USA) and water was allowed at all times. All animal experiments followed the National Yang-Ming University guidelines and procedures for the care of laboratory animals. […] Experimental rats were initially anesthetized with pentobarbital (50 mg/kg, i.p.), and polyethylene tubing was implanted in the right jugular vein for blood sampling. The tube crossed the subcutaneous tissue and was fixed at its exit from the dorsal neck region. The patency tubing was maintained by filling with heparinized saline (20 units/mL). After surgery, the rats were placed in experimental cages and allowed to recuperate for one day. The rats were kept fasted for 12 h and water were available ad libitum before the BYHWT administration. […] In our study, the dose of BYHWT (10 g/kg) was appropriate for oral administration in rats. […] The condensed blood collection in the absorption phase is to figure out the maximum concentration and the time when it reaches the maximum concentration. The time points in the elimination phase are not close. This strategy is commonly used in the pharmacokinetic studies but the total blood consumption should not be over 20% of body blood. In these experimental rats, the total blood sampling volume is within 20% during 12 h. Plasma was separated by centrifuging the blood sample at 6000 rpm for 10 min at 4°C. […] The samples were vortexed and centrifuged at 16,100×g for 10 min. In our micro-analysis, less than 200 μL is needed. Actually, the collected blood volume is around 120-150 μL for each time point. After centrifugation, the plasma samples (50 μL) were vortex-mixed with 100 μL of acetonitrile. The supernatants were collected and filtered. Around 20 μL aliquot of the supernatants was transferred into the vial for analysis by HPLC-MS/MS system. The acetonitrile but not the real sample was used in the needle pre-wash standard procedure [19]. The LC-MS/MS system consisted of an Agilent 1100 series LC with automatic liquid chromatographic sampler, injector, bi-pump and degasser; and Applied Biosystems/MDS Sciex API 3000 tandem quadrupole mass spectrometry equipped with electrospray ionization (ESI) interface using the following parameters: nebulizer gas (NEB):10, curtain gas (CUR): 7, collisionally activated dissociation gas (CAD): 12, ionspray voltage (IS): 5000 V, turbo ionspray temperature (TEM): 450°C. Nitrogen was used in all cases. The mass spectrometer was operated in the positive ion detection mode. […] The following linear gradient program was applied to the analyte with the mobile phase consisting of methanol (0.1% formic acid, solvent A) and NH4OAc (0.1% formic acid, solvent B): 0-1 min: 30-70% A; 1-2 min 70-90%; 2-8 min: 90-90%; 8-9 min: 90-30%, 9-18 min: 30-30%, v/v. […] The flow rate was maintained at […]. Pharmacokinetic parameters including maximum plasma concentration (Cmax), time to reach the maximum concentrations (Tmax), half-life (t1/2), area under concentration-time curve (AUC) and oral clearance (CL) were estimated by a non-compartmental analysis using the pharmacokinetic program, WinNonlin Standard Edition Version 1.1 (Scientific Consulting, Apex, NC, USA). All results were expressed as average mean ± standard deviation (S.D.). ANOVA was used to evaluate differences, and a value of P<0.05 was taken as statistically significant.

[4] = male, Sprague-Dawley, rat, in vivo, po, 10 g/kg

Stability (%) Autosampler stability ([2]; concentration 1 (µg/mL))	Stability (%) Short-term stability ([2]; concentration 1 (µg/mL))	Stability (%) Freeze-thaw stability ([2]; concentration 1 (µg/mL))	Stability (%) Long-term stability ([2]; concentration 1 (µg/mL))	Stability (%) Autosampler stability ([2]; concentration 10 (µg/mL))	Stability (%) Short-term stability ([2]; concentration 10 (µg/mL))	Stability (%) Freeze-thaw stability ([2]; concentration 10 (µg/mL))	Stability (%) Long-term stability ([2]; concentration 10 (µg/mL))	Stability (%) Autosampler stability ([2]; concentration 100 (µg/mL))	Stability (%) Short-term stability ([2]; concentration 100 (µg/mL))	Stability (%) Freeze-thaw stability ([2]; concentration 100 (µg/mL))	Stability (%) Long-term stability ([2]; concentration 100 (µg/mL))	Structure (SMILES)	also measured
–	–	–	–	–	–	–	–	–	–	–	–	COc1cc2c(c(OC)c1OC)-c1ccc(OC)c(=O)cc1[C@@H](NC(C)=O)CC2 [colchicine]	AUC ([1]; donor rats): 847.7 ± 141.0 µg·min/mL; AUC ([1]; recipient rats): 55.5 ± 29.2 µg·min/mL
−5.3±7.9%	−3.6±8.0%	4.6±3.6%	−14±17%	4.3±6.6%	−4.1±10%	3.8±2.7%	−8.3±2.3%	−4.9±7.0%	−6.4±6.4%	−1.8±5.4%	−27±12%	CC(=O)OC1C(O)COC(OC2CCC34CC35CCC3(C)C(C6(C)CCC(C(C)(C)O)O6)C(O)CC3(C)C5CC(OC3OC(CO)C(O)C(O)C3O)C4C2(C)C)C1OC(C)=O (centres unmarked) [Astragaloside I, astragaloside I]	Cl ([3]; male, Sprague-Dawley, rat, in vivo, po): 90.5 ± 14 mL/min/kg; Cmax [3, 4]: 55 ± 7.8 ng/mL; Tmax [3, 4]: 0.667 h; half-life [3, 4]: 2.77 ± 0.467 h; AUC ([3]; rat, in vivo, po, 10 g/kg): 277 ± 43.3 ng·h/mL
−8.4±12%	2.5±11%	5.8±6.1%	6.4±12%	2.1±9.1%	7.3±12%	4.9±3.5%	23±13%	3.5±7.9%	−0.1±0.9%	7.0±1.2%	20±12%	COc1ccc(-c2coc3cc(O[C@@H]4O[C@H](CO)[C@@H](O)[C@H](O)[C@H]4O)ccc3c2=O)cc1O [Calycosin-7-O-β-D-glucoside, calycosin-7-O-β-D-glucoside]	Cmax ([3]; male, Sprague-Dawley, po, rat plasma, BYHWT extract 10 g/kg p.o., n = 6, read-out: Cmax): 18 ± 4.1 ng/mL; Tmax ([3]; male, Sprague-Dawley, po, rat plasma, BYHWT extract 10 g/kg p.o., n = 6, read-out: Tmax (converted)): 0.533 h; half-life ([3]; male, Sprague-Dawley, po, rat plasma, BYHWT extract 10 g/kg p.o., n = 6, read-out: t1/2): 5.63 ± 2.2 h; absorption phase in the plasma concentration-time curve ([3]; rat plasma, BYHWT extract 10 g/kg p.o.): single and plateau absorption phase
